Experiment [1] addresses Protein cereblon/Leucine-rich repeat serine/threonine-protein kinase 2 (Mus musculus, UniProt Q5S006+Q8C7D2). Kind of experiment: Protac activity at CRBN/LRRK2 in mouse MEF cells assessed as induction of LRRK2 degradation by measuring reduction in LRRK2 phosphorylation at S935 residue by Invitrogen Adapta assay. The format is cell-based.
Experiment [2] deals with Protein cereblon/Leucine-rich repeat serine/threonine-protein kinase 2 (Mus musculus, UniProt Q5S006+Q8C7D2, G2019S). Kind of experiment: Protac activity at CRBN/LRRK2 G2019S homozygous knock-in mutant in mouse MEF cells assessed as induction of LRRK2 degradation by measuring reduction in LRRK2 phosphorylation at S935 residue by Invitrogen Adapta assay. The format is cell-based.

For orientation: IC50 means the point on the concentration scale where inhibition reaches its midpoint.

For the molecule `CC1(Oc2ccc3[nH]nc(-c4cc(N5CCN(C(=O)CCOCCNc6cccc7c6C(=O)N(C6CCC(=O)NC6=O)C7=O)CC5)ncn4)c3c2)CC1` (stereo unspecified), the half-inhibitory concentration (IC50) in experiment [1] was found to be 1.59 nM; in experiment [2], 1.08 nM.

Turning to `CC1(Oc2ccc3[nH]nc(-c4cc(N5CCN(C(=O)CCOCCNc6cccc7c6C(=O)N(C6CCC(=O)NC6=O)C7)CC5)ncn4)c3c2)CC1` (stereo unspecified), the IC50 came to 2.5 nM in experiment [1] and 1.47 nM in experiment [2].

With `CC1(Oc2ccc3[nH]nc(-c4cc(N5CCN(C(=O)CCOCCOCCNc6cccc7c6C(=O)N(C6CCC(=O)NC6=O)C7)CC5)ncn4)c3c2)CC1` (stereo unspecified), the IC50 was 2.58 nM in experiment [1] and 2.24 nM in experiment [2].

Regarding `CC1(Oc2ccc3[nH]nc(-c4cc(N5CCN(C(=O)CCOCCOCCOCCOCCNc6cccc7c6C(=O)N(C6CCC(=O)NC6=O)C7=O)CC5)ncn4)c3c2)CC1` (stereo unspecified), the IC50 in experiment [1] is 1.46 nM; in experiment [2], 0.98 nM.

For the molecule `CNc1nc(Nc2ccc(C(=O)N3CCN(C(=O)CCOCCOCCOCCOCCNc4cccc5c4C(=O)N(C4CCC(=O)NC4=O)C5=O)CC3)cc2OC)ncc1C(F)(F)F` (stereo unspecified), the IC50 in experiment [1] stood at 4 nM; in experiment [2] it was 2 nM.

In the case of `CNc1nc(Nc2ccc(C(=O)N3CCN(C(=O)CCCCCCCCOc4cccc5c4C(=O)N(C4CCC(=O)NC4=O)C5=O)CC3)cc2OC)ncc1C(F)(F)F` (stereo unspecified), the figures for the 50% inhibitory concentration (IC50) in experiment [1] and in experiment [2] were 2 nM and 1 nM, respectively.

On to `CC1(Oc2ccc3[nH]nc(-c4cc(N5CCN(C(=O)CCOCCOCCNc6cccc7c6C(=O)N(C6CCC(=O)NC6=O)C7=O)CC5)ncn4)c3c2)CC1` (stereo unspecified), for which the IC50 stood at 1.24 nM in experiment [1] and 1.13 nM in experiment [2].

For the molecule `CC1(Oc2ccc3[nH]nc(-c4cc(N5CCN(C(=O)CCOCCOCCOCCOCCNc6cccc7c6C(=O)N(C6CCC(=O)NC6=O)C7)CC5)ncn4)c3c2)CC1` (stereo unspecified), the IC50 is 3.14 nM in experiment [1] and 3.16 nM in experiment [2].

The record behind these values is ChEMBL document CHEMBL4725454, “Degradation of LRRK2 in the Treatment of Parkinson's Disease” (ACS Med Chem Lett, 2020).
